Source: ChEMBL document CHEMBL2176892, “Conjugation of quinones with natural polyamines: toward an expanded antitrypanosomatid profile” (J Med Chem, 2012)
Activity calls are given as the source filed them. The rule behind the calls is not given here.

Tests used:
Leishmania donovani [1] = assay: Antitrypanosomal activity against promastigote form of Leishmania donovani MHOM/SD/00/1S-2D assessed as growth inhibition after 72 hrs by inverted microscopy; type: functional, organism-based
[2] = molecular target: Trypanothione reductase (Trypanosoma brucei brucei) (UniProt P39051); assay: Induction of intrinsic oxidase activity of Trypanosoma brucei TR at 5 uM
[3] = Selectivity index, ratio of IC50 for rat L6 cells to IC50 for axenic amastigote form of Leishmania donovani strain MHOM-ET-67/L82; type: toxicity, cell-based; conditions: read-out: Ratio IC50
[4] = Selectivity index, ratio of IC50 for rat L6 cells to IC50 for trypomastigote form of Trypanosoma brucei rhodesiense strain STIB 900; type: toxicity, cell-based; conditions: read-out: Ratio IC50
L6 = assay: Cytotoxicity against rat L6 cells assessed as growth inhibition after 72 hrs by inverted microscopy; type: cell-based; conditions: L6, 72 h
[5] = molecular target: Trypanothione reductase (Trypanosoma brucei brucei) (UniProt P39051); assay: Inhibition of Trypanosoma brucei TR using 40 to 100 uM trypanothione disulfide assessed as remaining activity at 5 uM
Leishmania donovani [6] = assay: Antitrypanosomal activity against axenic amastigote form of Leishmania donovani MHOM-ET-67/L82 assessed as growth inhibition after 72 hrs by inverted microscopy; type: functional, organism-based; conditions: MHOM-ET-67/L82, 72 h
[7] = system: Trypanosoma brucei rhodesiense; assay: Antitrypanosomal activity against trypomastigote form of Trypanosoma brucei rhodesiense STIB 900 assessed as growth inhibition after 72 hrs by microplate fluorometry; type: functional, organism-based; conditions: STIB 900, 72 h
[8] = Selectivity index, ratio of IC50 for rat L6 cells to IC50 for intracellular amastigote form of Trypanosoma cruzi Tulahuen strain C2C4; type: toxicity, cell-based; conditions: read-out: Ratio IC50
Trypanosoma cruzi = assay: Antitrypanosomal activity against intracellular amastigote form of Trypanosoma cruzi Tulahuen C2C4 infected in rat L6 cells assessed as growth inhibition after 92 hrs by inverted microscopy; type: functional, organism-based; conditions: Tulahuen C2C4, L6, 92 h
[9] = Selectivity index, ratio of IC50 for rat L6 cells to IC50 for promastigote form of Leishmania donovani strain MHOM/SD/00/1S-2D; type: toxicity, cell-based; conditions: read-out: Ratio IC50
Trypanothione reductase [10] = molecular target: T1, Trypanothione reductase (Trypanosoma brucei brucei, UniProt P39051); assay: Mixed type inhibition of Trypanosoma brucei TR using varying levels of trypanothione disulfide assessed as inhibition constant for enzyme-inhibitor complex by Lineweaver-Burk plot
Trypanothione reductase [11] = molecular target: T1, Trypanothione reductase; assay: Noncompetitive inhibition of Trypanosoma brucei TR using varying levels of trypanothione disulfide by Lineweaver-Burk plot
Leishmania donovani [12] = assay: Reduction in free cytoplasmic ATP level in promastigote form of Leishmania donovani 3-Luc at 2.5 to 25 uM after 15 to 20 mins by luminescence assay; type: functional, organism-based
Leishmania donovani [13] = assay: Induction of morphological damage in promastigote form of Leishmania donovani MHOM/ET/67/L82 assessed as accumulation of vesicular material inside the flagellar pocket at 5 uM after 4 hrs by transmission electron microscopy; type: functional, organism-based
Leishmania donovani [14] = assay: Reduction in mitochondrial electrochemical potential in promastigote form of Leishmania donovani MHOM/ET/67/L82 assessed as reduction in Rhodamine 123 fluorescence at 25 uM after 4 hrs by flow cytometry; type: functional, organism-based
Trypanothione reductase [15] = molecular target: T1, Trypanothione reductase; assay: Mixed type inhibition of Trypanosoma brucei TR using varying levels of trypanothione disulfide assessed as inhibition constant for enzyme-substrate-inhibitor complex by Lineweaver-Burk plot
Leishmania donovani [16] = assay: Induction of morphological damage in promastigote form of Leishmania donovani MHOM/ET/67/L82 assessed as mitochondrial swelling at 5 uM after 4 hrs by transmission electron microscopy; type: functional, organism-based

Chain of Trypanothione reductase (Trypanosoma brucei brucei) (P39051 whole entry, looked up): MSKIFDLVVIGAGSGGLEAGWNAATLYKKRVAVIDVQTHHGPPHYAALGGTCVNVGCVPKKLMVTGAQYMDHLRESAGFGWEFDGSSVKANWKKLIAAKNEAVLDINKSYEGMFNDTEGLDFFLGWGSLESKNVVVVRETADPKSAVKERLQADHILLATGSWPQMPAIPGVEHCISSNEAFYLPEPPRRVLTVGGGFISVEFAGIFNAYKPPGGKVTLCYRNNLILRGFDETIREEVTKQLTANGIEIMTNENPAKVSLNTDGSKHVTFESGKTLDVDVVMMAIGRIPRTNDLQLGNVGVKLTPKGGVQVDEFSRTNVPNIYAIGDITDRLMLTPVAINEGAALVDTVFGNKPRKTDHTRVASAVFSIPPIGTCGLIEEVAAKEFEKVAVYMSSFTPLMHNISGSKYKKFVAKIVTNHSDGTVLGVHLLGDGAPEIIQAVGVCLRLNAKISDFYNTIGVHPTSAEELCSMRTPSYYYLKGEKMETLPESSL
T1 sequence (P39051 whole entry): as the sequence (P39051 whole entry, looked up) above

Structure (SMILES)	IC50 (Leishmania donovani [1]) [µM]	Activity [2]	selectivity ratio [3]	selectivity ratio [4]	IC50 (L6) [µM]	Activity [5] [%]	IC50 (Leishmania donovani [6]) [µM]	IC50 [7] [µM]	selectivity ratio [8]	IC50 (Trypanosoma cruzi) [µM]	selectivity ratio [9]	Ki (Trypanothione reductase [10]) [µM]	Ki (Trypanothione reductase [11]) [µM]	Activity (Leishmania donovani [12])	Activity (Leishmania donovani [13])	Activity (Leishmania donovani [14])	Ki (Trypanothione reductase [15]) [µM]	Activity (Leishmania donovani [16])
NCCCNCCCCNCc1ccc(OC2=CC(=O)c3cc4ccccc4cc3C2=O)cc1	15.4	inactive	2.01	27.4	6.29	36	3.13	0.23	0.16	39.4	0.41							
NCCCNCCCCNCCCNCc1ccc(OC2=CC(=O)c3ccccc3C2=O)cc1	> 30	Active	1.22	15.7	7.05	36	5.79	0.45	0.29	24.1	< 0.23							
Nc1nc(N)nc(Nc2ccc([As]3SCC(CO)S3)cc2)n1 (stereo unspecified) [MELARSOPROL]				1830	18.3													
O=C(Cn1ccnc1[N+](=O)[O-])NCc1ccccc1 [BENZNIDAZOLE]					> 384													
COc1cc([C@@H]2c3cc4c(cc3[C@H](O)[C@H]3COC(=O)[C@H]23)OCO4)cc(OC)c1OC [PODOFILOX]					0.0017													
NCCCCNCc1ccc(OC2=CC(=O)c3ccccc3C2=O)cc1	8.72		1.63	50.5	11.1		6.81	0.22	0.37	30	1.27							
NCCCCCNCc1ccc(OC2=CC(=O)c3cc4ccccc4cc3C2=O)cc1	3.62	inactive	2.06	72	5.04	36	2.44	0.07	0.29	17.4	1.39	3.4	3.4	Dose-dependent effect	Active	Active	3.9	
NCCCNCCCCNCCCNCc1ccc(OC2=CC(=O)c3cc4ccccc4cc3C2=O)cc1	16.1		2.15	22.5	7.21		3.35	0.32	0.21	34.8	0.45							
NCCCCNCc1ccc(OC2=CC(=O)c3cc4ccccc4cc3C2=O)cc1	3.59	inactive	1.98	16	5.6	36	2.82	0.35	0.3	18.6	1.56							
NCCCNCCCCNCc1ccc(OC2=CC(=O)c3ccccc3C2=O)cc1	> 30		1.28	12.8	9.18		7.17	0.72	0.18	52.2	< 0.31							
NCCCNCCCNCCCNCc1ccc(OC2=CC(=O)c3cc4ccccc4cc3C2=O)cc1	9.08		2.03	20.3	4.87		2.4	0.24	0.29	17.4	0.53							
O=C1C=C(Oc2ccccc2)C(=O)c2ccccc21	0.74		4.7	74		51			4.7	1.26	8							
NCCCCCNCc1ccc(OC2=CC(=O)c3ccccc3C2=O)cc1	7.72	Active	1.37	35	9.1	36	6.63	0.26	0.45	20	1.18	2.8					4.6	
O=C1C=C(Oc2ccccc2)C(=O)c2cc3ccccc3cc21	2.81		2.91	19.8		51			0.21	4.66	0.35			Dose-dependent effect		Active		Active
CCCCCCCCCCCCCCCCOP(=O)([O-])OCC[N+](C)(C)C [MILTEFOSINE]			462		143													
NCCCNCCCNCCCNCc1ccc(OC2=CC(=O)c3ccccc3C2=O)cc1	> 30		0.89	14	6.46		7.27	0.46	0.34	18.8	< 0.21							
